Measurements taken from ChEMBL document CHEMBL1152511, “Structural basis for alpha-conotoxin potency and selectivity” (Bioorg Med Chem, 2009).
Residues, ends and D or L forms follow the SMILES beside them.

Assays:
[1] = molecular target: Neuronal acetylcholine receptor; alpha6/beta2 (Homo sapiens, UniProt P17787+Q15825); experiment: Inhibition of alpha6beta2 nAChR; type: protein-complex assay
[2] = Selectivity for alpha3beta2 nAChR over alpha6beta2 nAChR
[3] = molecular target: Neuronal acetylcholine receptor; alpha3/beta2 (Homo sapiens, UniProt P17787+P32297); experiment: Inhibition of alpha3beta2 nAChR; type: protein-complex assay
Neuronal acetylcholine receptor; alpha3/beta2, sequence (P17787 whole entry): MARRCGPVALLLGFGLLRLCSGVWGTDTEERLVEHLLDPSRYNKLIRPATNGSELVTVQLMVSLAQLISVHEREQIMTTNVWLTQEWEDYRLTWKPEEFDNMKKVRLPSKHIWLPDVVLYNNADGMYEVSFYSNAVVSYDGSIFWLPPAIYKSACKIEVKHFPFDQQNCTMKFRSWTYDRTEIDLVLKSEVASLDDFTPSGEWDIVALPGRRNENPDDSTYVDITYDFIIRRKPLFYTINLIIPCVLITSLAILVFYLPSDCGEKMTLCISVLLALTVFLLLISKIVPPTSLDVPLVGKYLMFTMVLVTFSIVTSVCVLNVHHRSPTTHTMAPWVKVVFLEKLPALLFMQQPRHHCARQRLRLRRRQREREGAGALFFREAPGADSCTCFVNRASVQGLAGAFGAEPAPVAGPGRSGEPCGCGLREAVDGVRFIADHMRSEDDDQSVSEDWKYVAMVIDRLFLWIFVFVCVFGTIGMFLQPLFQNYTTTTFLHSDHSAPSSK
Neuronal acetylcholine receptor; alpha3/beta2, sequence (P32297 whole entry): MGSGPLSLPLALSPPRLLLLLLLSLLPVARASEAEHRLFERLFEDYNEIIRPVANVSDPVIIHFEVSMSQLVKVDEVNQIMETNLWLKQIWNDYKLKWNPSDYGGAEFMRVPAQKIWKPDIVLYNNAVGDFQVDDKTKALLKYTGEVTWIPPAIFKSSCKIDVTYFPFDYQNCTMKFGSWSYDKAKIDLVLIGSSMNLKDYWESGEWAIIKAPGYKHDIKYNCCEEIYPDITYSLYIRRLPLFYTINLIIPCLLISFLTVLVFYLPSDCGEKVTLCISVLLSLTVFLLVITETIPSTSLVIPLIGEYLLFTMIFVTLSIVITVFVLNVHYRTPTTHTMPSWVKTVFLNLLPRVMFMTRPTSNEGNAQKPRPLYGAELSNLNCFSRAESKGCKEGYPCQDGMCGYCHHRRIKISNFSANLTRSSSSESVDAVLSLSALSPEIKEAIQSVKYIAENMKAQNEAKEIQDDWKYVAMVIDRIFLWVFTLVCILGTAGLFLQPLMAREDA

[4] = Selectivity ratio of IC50 for alpha6beta2 nAChR to IC50 for alpha3beta2 nAChR
Macaca mulatta [5] = species on record: Macaca mulatta; experiment: Binding affinity to monkey alpha-6-(non-alpha-4)-beta-2 nAChR
Macaca mulatta [6] = species on record: Macaca mulatta; experiment: Binding affinity to monkey alpha-6-alpha-4-beta-2 nAChR
Macaca mulatta [7] = species on record: Macaca mulatta; experiment: Selectivity ratio of monkey alpha-6-alpha-4-beta-2 nAChR over monkey alpha-6-(non-alpha-4)-beta-2 nAChR

Neuronal acetylcholine receptor; alpha6/beta2, sequence (P17787 whole entry): as the sequence (P17787 whole entry) above
Neuronal acetylcholine receptor; alpha6/beta2, sequence (Q15825 whole entry): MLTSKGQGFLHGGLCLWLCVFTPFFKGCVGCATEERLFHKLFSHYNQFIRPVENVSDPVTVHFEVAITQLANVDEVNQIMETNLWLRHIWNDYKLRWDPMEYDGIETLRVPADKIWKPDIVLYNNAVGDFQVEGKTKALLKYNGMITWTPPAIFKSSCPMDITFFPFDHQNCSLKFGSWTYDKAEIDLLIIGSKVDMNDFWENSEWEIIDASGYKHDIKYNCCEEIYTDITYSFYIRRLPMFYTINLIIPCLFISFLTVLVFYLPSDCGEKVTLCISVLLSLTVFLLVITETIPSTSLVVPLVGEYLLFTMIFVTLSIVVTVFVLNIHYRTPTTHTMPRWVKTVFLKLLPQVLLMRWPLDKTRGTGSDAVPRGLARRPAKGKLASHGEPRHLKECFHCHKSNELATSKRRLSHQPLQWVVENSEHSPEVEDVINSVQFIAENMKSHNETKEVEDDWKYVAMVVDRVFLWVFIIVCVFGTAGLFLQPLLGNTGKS

Compound | IC50 [1] | Selectivity ratio [2] | IC50 [3] | Ratio IC50 [4] | Activity (Macaca mulatta [5]) | Activity (Macaca mulatta [6]) | Selectivity ratio (Macaca mulatta [7])
CC[C@H](C)[C@H](NC(=O)[C@H](CCC(N)=O)NC(=O)[C@@H]1CCCN1C(=O)[C@H](CC(N)=O)NC(=O)[C@H](Cc1cnc[nH]1)NC(=O)[C@@H](NC(=O)[C@@H](NC(=O)[C@H](CS)NC(=O)[C@@H](NC(=O)[C@@H]1CCCN1C(=O)[C@H](CC(N)=O)NC(=O)[C@H](CO)NC(=O)[C@H](CS)NC(=O)[C@H](CS)NC(=O)[C@@H]1CCCN1C(=O)[C@H](CC(=O)O)NC(=O)[C@@H](N)CCCNC(=N)N)C(C)C)[C@@H](C)O)C(C)C)C(=O)N[C@@H](CS)C(=O)O (H-RDPCCSNPVCTVHNPQIC-OH) | 0.95 nM | 75 | 74.2 nM | 78.1 |  |  | 
CC[C@H](C)[C@H](NC(=O)[C@H](Cc1cnc[nH]1)NC(=O)[C@H](CCC(N)=O)NC(=O)[C@H](CC(N)=O)NC(=O)[C@H](CC(N)=O)NC(=O)CNC(=O)[C@H](C)NC(=O)[C@H](CS)NC(=O)[C@H](C)NC(=O)[C@@H]1CCCN1C(=O)[C@H](Cc1cnc[nH]1)NC(=O)[C@H](CO)NC(=O)[C@H](CS)NC(=O)[C@H](CS)NC(=O)CN)C(=O)N[C@@H](CS)C(=O)O | 3 nM |  | 1.1 nM | 0.4 |  |  | 
CC(C)C[C@H](NC(=O)[C@H](Cc1cnc[nH]1)NC(=O)[C@H](CS)NC(=O)[C@@H](NC(=O)[C@@H]1CCCN1C(=O)[C@H](CC(N)=O)NC(=O)[C@H](CO)NC(=O)[C@H](CS)NC(=O)[C@H](CS)NC(=O)CN)C(C)C)C(=O)N[C@@H](C)C(=O)N[C@@H](Cc1cnc[nH]1)C(=O)N[C@@H](CO)C(=O)N[C@@H](CC(N)=O)C(=O)N[C@@H](CC(C)C)C(=O)N[C@@H](CS)C(=O)O (H-GCCSNPVCHLAHSNLC-OH) | 0.16 nM |  | 8.72 nM | 54.5 | 9.7 fM | 51 pM | 5300
CC(C)C[C@H](NC(=O)[C@H](CC(N)=O)NC(=O)[C@H](CO)NC(=O)[C@H](Cc1cnc[nH]1)NC(=O)[C@H](CCC(=O)O)NC(=O)[C@H](CC(C)C)NC(=O)[C@H](Cc1cnc[nH]1)NC(=O)[C@H](CS)NC(=O)[C@@H](NC(=O)[C@@H]1CCCN1C(=O)[C@H](CC(N)=O)NC(=O)[C@H](CO)NC(=O)[C@H](CS)NC(=O)[C@H](CS)NC(=O)CN)C(C)C)C(=O)N[C@@H](CS)C(=O)O | 0.39 nM |  | 0.5 nM |  |  |  | 
